Laboratory results taken from patent US20220390426A1, “AIE PROBE AND APPLICATION THEREOF” (The Hong Kong University of Science and Technology, priority 2020, published 2022).

Molecular target: albumin (HSA) (Homo sapiens, UniProt P02768)
Test: Albumin detection by ASQ fluorescence in PBS buffer
Assay type: binding
Conditions: [ASQ]=100 μM, λex=430 nm
Description: FIG. 4A The fluorescence response of ASQ to HSA. FIG. 4B Linear plot of l/l0 at 542 nm versus HSA concentrations. l0 equals to the intensity of [HSA]=0 mg/L. FIG. 4C Selectivity study of ASQ towards albumin. l0 equals the intensity of the blank sample. [Biomolecules]=1 mg/mL. [ASQ]=100 μM, λex=430 nm.
Albumin protein is the substance carrier in blood with multiple polar or nonpolar binding sites. […] There is a very good linear relationship between the fluorescence intensity and albumin concentration (FIG. 4B).

Chain of albumin (HSA) (P02768 25-609): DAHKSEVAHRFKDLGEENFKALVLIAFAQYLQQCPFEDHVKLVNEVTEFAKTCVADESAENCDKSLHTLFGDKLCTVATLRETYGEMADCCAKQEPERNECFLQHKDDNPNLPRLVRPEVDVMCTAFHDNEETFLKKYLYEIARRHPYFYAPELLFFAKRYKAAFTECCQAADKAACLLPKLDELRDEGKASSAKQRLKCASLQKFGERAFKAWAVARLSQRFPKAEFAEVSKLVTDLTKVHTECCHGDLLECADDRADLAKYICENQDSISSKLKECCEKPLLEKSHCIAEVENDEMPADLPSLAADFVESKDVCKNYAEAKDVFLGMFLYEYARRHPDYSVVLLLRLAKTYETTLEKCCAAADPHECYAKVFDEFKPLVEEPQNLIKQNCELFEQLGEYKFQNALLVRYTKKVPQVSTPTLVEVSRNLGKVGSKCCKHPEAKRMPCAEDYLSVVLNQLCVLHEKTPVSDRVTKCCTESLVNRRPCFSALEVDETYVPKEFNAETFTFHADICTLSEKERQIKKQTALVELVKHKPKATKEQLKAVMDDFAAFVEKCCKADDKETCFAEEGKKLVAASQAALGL

## CN(C)c1ccc(C=Cc2nc3ccccc3[nH]c2=O)cc1 [ASQ]
ASQ's PBS buffer solution
  fluorescence emission response on addition of albumin: greatly enhanced
[Biomolecules]=1 mg/mL
  selectivity towards albumin versus other common biomolecules such as hemoglobin (emission turn-on): good selectivity towards albumin
